# Experimental data reported in ChEMBL document CHEMBL1833796, “Locating the binding sites of anticancer tamoxifen and its metabolites 4-hydroxytamoxifen and endoxifen on bovine serum albumin” (Eur J Med Chem, 2011).
# Experiments:
# Assay type in all cases: ADME
# Albumin [1] = target: T1, Albumin (Bos taurus, UniProt P02769); experiment: Effect on secondary structure of bovine serum albumin assessed as alpha-helix content at 0.5 uM at pH 7.4 by circular dichroism method (reference value: 63 %); conditions: cattle, pH 7.4, 0.5 µM
# T1 sequence (P02769 whole entry): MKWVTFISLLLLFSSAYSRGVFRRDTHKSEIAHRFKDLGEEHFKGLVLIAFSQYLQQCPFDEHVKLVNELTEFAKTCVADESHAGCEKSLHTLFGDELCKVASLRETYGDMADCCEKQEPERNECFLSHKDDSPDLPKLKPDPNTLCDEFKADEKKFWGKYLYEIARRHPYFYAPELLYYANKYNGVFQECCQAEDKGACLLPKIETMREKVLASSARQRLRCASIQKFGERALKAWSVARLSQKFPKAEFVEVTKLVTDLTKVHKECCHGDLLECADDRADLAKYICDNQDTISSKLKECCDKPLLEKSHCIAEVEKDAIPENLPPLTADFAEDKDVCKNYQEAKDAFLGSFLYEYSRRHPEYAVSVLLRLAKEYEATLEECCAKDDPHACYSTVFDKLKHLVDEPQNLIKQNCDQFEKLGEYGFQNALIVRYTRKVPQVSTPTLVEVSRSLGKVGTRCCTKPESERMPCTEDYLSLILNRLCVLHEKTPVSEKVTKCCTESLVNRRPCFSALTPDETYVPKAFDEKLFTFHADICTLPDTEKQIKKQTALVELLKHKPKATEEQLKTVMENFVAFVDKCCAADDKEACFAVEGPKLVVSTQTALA
# Albumin [2] = target: T1, Albumin; experiment: Binding affinity to bovine serum albumin at pH 7.4 by fluorescence spectroscopy; conditions: cattle, isolated protein
# Albumin [3] = target: T1, Albumin; experiment: Effect on secondary structure of bovine serum albumin assessed as beta antiparallel content at 0.5 uM at pH 7.4 by circular dichroism method (reference value: 3 %); conditions: cattle, pH 7.4, 0.5 µM
# Albumin [4] = target: T1, Albumin; experiment: Effect on secondary structure of bovine serum albumin assessed as beta-sheet content at 0.5 uM at pH 7.4 by circular dichroism method (reference value: 16 %); conditions: cattle, pH 7.4, 0.5 µM
# Albumin [5] = target: T1, Albumin; experiment: Effect on secondary structure of bovine serum albumin assessed as turn structure content at 0.5 uM at pH 7.4 by circular dichroism method (reference value: 12 %); conditions: cattle, pH 7.4, 0.5 µM
# Albumin [6] = target: T1, Albumin; experiment: Effect on secondary structure of bovine serum albumin assessed as random coil content at 0.5 uM at pH 7.4 by circular dichroism method (reference value: 6 %); conditions: cattle, pH 7.4, 0.5 µM
# Albumin [7] = target: T1, Albumin; experiment: Binding affinity to bovine serum albumin at pH 7.4 by Stern-Volmer plot; conditions: cattle, isolated protein
# Albumin [8] = target: T1, Albumin; experiment: Binding affinity to bovine serum albumin at pH 7.4 by McGhee and von Hippel method; conditions: cattle, isolated protein
# Albumin [9] = target: T1, Albumin; experiment: Binding affinity to bovine serum albumin at 1 to 100 uM at pH 7.4 by fluorescence spectroscopy; conditions: cattle, isolated protein, pH 7.4, 100 µM
SMILES,Activity (Albumin [1]),K (Albumin [2]),Activity (Albumin [3]),Activity (Albumin [4]),Activity (Albumin [5]),Activity (Albumin [6]),K (Albumin [7]),K (Albumin [8]),Activity (Albumin [9])
CCC(=C(c1ccc(O)cc1)c1ccc(OCCN(C)C)cc1)c1ccccc1,39%,1.8 ×10⁴ /M,3%,17%,21%,20%,1.8 ×10⁴ /M,1.5 ×10⁴ /M,
CC/C(=C(\c1ccc(O)cc1)c1ccc(OCCNC)cc1)c1ccccc1 [ENDOXIFEN],47%,8.01 ×10³ /M,3%,14%,21%,15%,0.8 ×10⁴ /M,1.1 ×10⁴ /M,
CC/C(=C(\c1ccccc1)c1ccc(OCCN(C)C)cc1)c1ccccc1 [TAMOXIFEN],41%,1.96 ×10⁴ /M,3%,26%,20%,10%,1.96 ×10⁴ /M,1.65 ×10⁴ /M,98%
